In US20240000669A1, “NOVEL ENDODONTIC IRRIGANT” (INTER-MED, INC., priority 2020, published 2024):

How the values were obtained:
[1] = Free available chlorine over time in 1:1 mixtures of chelating agent solutions with 3% NaOCl; type: physicochemical; details: for ability to maintain initial available chlorine, in words: after 1 hour, HEDP only above a pH of 11
[2] = Preliminary investigation of smear layer removal (calcium chelation)
Description: (§1) A score of 1 indicates very little smear layer remaining, whereas a score of 5 indicates heavy smear layer present.

[3] = Mass loss of tissue samples in sodium hypochlorite at different pH values (FIG. 6); details: 30 mL sodium hypochlorite, 30 minutes
Description: The organic tissue dissolution capacity of NaOCl may be a function of free available chlorine in solution and a function of alkalinity. As pH increases to above […] the proportion of the hypochlorite anion (OCl^−) to hypochlorous acid (HOCl) dramatically increases. Below this pH, the concentration of hypochlorite anion decreases and the concentration of HOCl increases (see FIG. 5, which illustrates the chlorine speciation profile as a function of pH). […] However, as the concentration of the hypochlorite ions decreases, the tissue dissolution capacity also decreases (see FIG. 6, which illustrates mass loss of tissue samples incubated in 30 mL of sodium hypochlorite at different pH values after 30 minutes.). In certain aspects of the invention, the medicament comprises HOCl and OCl— and has a pH between 8 and 10.

[4] = Organic tissue dissolution capacity of antiseptic and chelating solutions (mass loss of tissue samples, FIG. 4); details: 30 mL aqueous solution, 30 minutes
Procedure: Since the smear layer produced upon mechanical debridement of infected dental hard tissues includes both organic and inorganic dentin components, an investigation was conducted to determine the organic tissue dissolution capacity of various antiseptics and chelating solutions that are commonly used in dentistry and medical applications. For this purpose, soft tissue samples were incubated in aqueous solutions containing the agents to be studied and the mass loss of the tissue samples was measured. The results are collected in FIG. 4, where the average mass loss is given as a percentage fraction of the initial weight. FIG. 4 illustrates the mass loss (Mean %) of tissue samples incubated in 30 mL of aqueous solutions of various agents after 30 minutes. […] It can be seen that high concentrations of NaOCl along with the addition of surfactants (anionic and nonionic) tended to increase the tissue dissolution rate.

[5] = Smear layer removal from instrumented root canals (smear layer score); details: score 1 = very little smear layer remaining, 5 = heavy smear layer present
Description: as §1

## O=P(O)(O)O[C@H]1[C@H](OP(=O)(O)O)[C@@H](OP(=O)(O)O)[C@H](OP(=O)(O)O)[C@@H](OP(=O)(O)O)[C@H]1OP(=O)(O)O [PA, phytic acid (C6H6[OPO(OH)2]6)]
[1]
  ability to maintain initial available chlorine, in words: able to maintain most of their initial available chlorine
[2]
  calcium chelator strength, in words: relatively weak calcium chelators

## OCl [NaOCl, sodium hypochlorite]
[3]
  capability of dissolving organic tissue as a function of pH (FIG. 6), in words: most capable of dissolving organic tissue at a pH above 8
[4]
  mass loss of tissue samples (FIG. 4), in words: largest mass loss
[5]; apical root canal third
  residual smear layer score, Apical: 3.5
[5]; coronal root canal third
  residual smear layer score, Coronal: 3.2
[5]; middle root canal third
  residual smear layer score, Middle: 3.6

## O=P1([O-])OP(=O)([O-])OP(=O)([O-])OP(=O)([O-])OP(=O)([O-])OP(=O)([O-])O1.[Na+].[Na+].[Na+].[Na+].[Na+].[Na+] [SH, sodium hexametaphosphate]
[1]
  ability to maintain initial available chlorine, in words: able to maintain most of their initial available chlorine
[2]
  calcium chelator strength, in words: relatively weak calcium chelators

## O=C(O)CCC(CC(=O)O)(C(=O)O)P(=O)(O)O (stereo not drawn) [PBTC, 2-phosphonobutane-1,2,4,-tricarboxylic Acid]
[1]
  ability to maintain initial available chlorine, in words: able to maintain most of their initial available chlorine

## CC(O)(P(=O)(O)O)P(=O)(O)O [HEDP, 1-hydroxyethylidene-1,1-diphosphonic acid]
[1]; 0 h, HEDP 15% at pH 11.1, 1:1 mix with 3% NaOCl
  Free Available Chlorine Remaining Post Mix (hours): 0: 100%
[1]; 1 h, HEDP 15% at pH 11.1, 1:1 mix with 3% NaOCl
  Free Available Chlorine Remaining Post Mix (hours): 1: 80%
[1]; 4 h, HEDP 15% at pH 11.1, 1:1 mix with 3% NaOCl
  Free Available Chlorine Remaining Post Mix (hours): 4: 40%
[1]; 24 h, HEDP 15% at pH 11.1, 1:1 mix with 3% NaOCl
  Free Available Chlorine Remaining Post Mix (hours): 24: 20%
[1]
  ability to maintain initial available chlorine, in words: able to maintain most of their initial available chlorine
